Results as given in US6737383B1, “Herbicidal oxadiazolidines” (priority 1999, dated 2004).

What was measured:
[1] = tested on: morningglory; assay: Test B pre/postemergence morningglory; assay type: in vivo, Ipomoea hederacea; conditions: for Morningglory plant response rating: scale of 0 to 10 where 0 is no effect and 10 is complete control
Summary of the method: (§1)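 Test chemicals in a non-phytotoxic solvent mixture with surfactant were sprayed preemergence onto planted seeds and postemergence onto plants 2 to 18 cm tall (1- to 4-leaf stage). After twelve to sixteen days in a greenhouse, injury was visually rated against untreated controls from 0 (no effect) to 10 (complete control).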

[2] = tested on: bedstraw; assay: Test B pre/postemergence bedstraw; assay type: in vivo, Galium aparine; conditions: Preemergence
Summary of the method: as §1

[3] = tested on: wild oat; assay: Test B pre/postemergence wild oat; assay type: in vivo, Avena fatua; conditions: for Wild oats plant response rating: scale of 0 to 10 where 0 is no effect and 10 is complete control
Summary of the method: as §1

[4] = tested on: purple nutsedge; assay: Test B pre/postemergence purple nutsedge; assay type: in vivo, Cyperus rotundus; conditions: for Nutsedge plant response rating: scale of 0 to 10 where 0 is no effect and 10 is complete control
Summary of the method: as §1

[5] = tested on: duck salad; assay: Test B flood test duck salad; assay type: in vivo, Heteranthera limosa
Summary of the method: (§2)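 Plants were grown to the 2-leaf stage before treatment with test chemical, then held in a greenhouse for twelve to sixteen days. Injury was visually rated against untreated controls on a 0–10 scale, where 0 is no effect and 10 is complete control.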

[6] = tested on: soybean; assay: Test B pre/postemergence soybean; assay type: in vivo, Glycine max; conditions: for Soybean plant response rating: scale of 0 to 10 where 0 is no effect and 10 is complete control
Summary of the method: as §1

[7] = tested on: surinam grass; assay: Test B pre/postemergence surinam grass; assay type: in vivo, Brachiaria decumbens; conditions: for B. signalgrass plant response rating: scale of 0 to 10 where 0 is no effect and 10 is complete control
Summary of the method: as §1

[8] = tested on: cocklebur; assay: Test B pre/postemergence cocklebur; assay type: in vivo, Xanthium strumarium; conditions: for Cocklebur plant response rating: scale of 0 to 10 where 0 is no effect and 10 is complete control
Summary of the method: as §1

[9] = tested on: bamyardgrass; assay: Test B flood test barnyardgrass; assay type: in vivo, Echinochloa crus-galli
Summary of the method: as §2

[10] = tested on: velvetleaf; assay: Test B pre/postemergence velvetleaf; assay type: in vivo, Abutilon theophrasti; conditions: for Velvetleaf plant response rating: scale of 0 to 10 where 0 is no effect and 10 is complete control
Summary of the method: as §1

[11] = tested on: giant foxtail; assay: Test B pre/postemergence giant foxtail; assay type: in vivo, Setaria faberii; conditions: for Giant foxtail plant response rating: scale of 0 to 10 where 0 is no effect and 10 is complete control
Summary of the method: as §1

[12] = tested on: blackgrass; assay: Test B pre/postemergence blackgrass; assay type: in vivo, Alopecurus myosuroides; conditions: for Blackgrass plant response rating: scale of 0 to 10 where 0 is no effect and 10 is complete control
Summary of the method: as §1

[13] = tested on: smallflower flatsedge; assay: Test B flood test smallflower flatsedge; assay type: in vivo, Cyperus difformis
Summary of the method: as §2

[14] = tested on: corn; assay: Test B pre/postemergence corn; assay type: in vivo, Zea mays; conditions: for Corn plant response rating: scale of 0 to 10 where 0 is no effect and 10 is complete control
Summary of the method: as §1

[15] = tested on: crabgrass; assay: Test B pre/postemergence crabgrass; assay type: in vivo, Digitaria sanguinalis; conditions: for Crabgrass plant response rating: scale of 0 to 10 where 0 is no effect and 10 is complete control
Summary of the method: as §1

[16] = tested on: rice; assay: Test B flood test rice; assay type: in vivo, Oryza sativa
Summary of the method: as §2

[17] = tested on: wheat; assay: Test B pre/postemergence wheat; assay type: in vivo, Triticum aestivum; conditions: for Wheat plant response rating: scale of 0 to 10 where 0 is no effect and 10 is complete control
Summary of the method: as §1

[18] = Postemergence, Rate 125 g/ha, scale 0 to 10, 0 is no effect, 10 is complete control
[19] = Postemergence, Rate 250 g/ha, scale 0 to 10, 0 is no effect, 10 is complete control
[20] = Preemergence, Rate 62 g/ha, scale 0 to 10 (0 no effect, 10 complete control)
[21] = Rate 500 g/ha, Postemergence, scale 0 to 10, 0 no effect, 10 complete control
[22] = Rate 62 g/ha, flood test species, Pre-emergence, visual evaluation after twelve to sixteen days
[23] = Rate 125 g/ha, under heading Pre-emergence, flood test species, visual evaluation after twelve to sixteen days
[24] = Rate 250 g/ha, Pre-emergence, flood-test species, scale 0 to 10, 0 is no effect, 10 is complete control
[25] = Rate 500 g/ha, Pre-emergence, flood test species, scale 0 to 10 (0 no effect, 10 complete control)

## Cc1nsc(Cl)c1Cn1c(=O)on(C(=O)N(c2ccc(F)cc2)C(C)C)c1=O [Compound 373]
[1]; [18]
  Plant response rating, Morningglory: 8
[1]; [19]
  Plant response rating, Morningglory: 8
[1]; [20]
  Plant response rating, Morningglory: 0
[1]; Preemergence, Rate 125 g/ha
  Morningglory plant response rating (0 to 10 scale): 0
[1]; Preemergence, Rate 250 g/ha
  Morningglory plant response rating: 0
[1]; Preemergence, Rate 500 g/ha
  Morningglory plant response rating: 1
[1]; Rate 62 g/ha, Postemergence
  Morningglory plant response rating: 8
[1]; [21]
  Plant response rating, Morningglory: 8
[2]; Rate 62 g/ha, scale 0 to 10 (0 no effect, 10 complete control)
  Plant response rating, Bedstraw: 0
[2]; Rate 125 g/ha
  Bedstraw plant response rating (0 to 10 scale): 0
[2]; Rate 500 g/ha, scale of 0 to 10 where 0 is no effect and 10 is complete control
  Bedstraw plant response rating: 0
[3]; [18]
  Plant response rating, Wild oats: 0
[3]; [19]
  Plant response rating, Wild oats: 0
[3]; [20]
  Plant response rating, Wild oats: 0
[3]; Preemergence, Rate 125 g/ha
  Wild oats plant response rating (0 to 10 scale): 0
[3]; Preemergence, Rate 250 g/ha
  Wild oats plant response rating: 0
[3]; Preemergence, Rate 500 g/ha
  Wild oats plant response rating: 0
[3]; Rate 62 g/ha, Postemergence
  Wild oats plant response rating: 0
[3]; [21]
  Plant response rating, Wild oats: 0
[4]; [18]
  Plant response rating, Nutsedge: 0
[4]; [19]
  Plant response rating, Nutsedge: 0
[4]; [20]
  Plant response rating, Nutsedge: 0
[4]; Preemergence, Rate 125 g/ha
  Nutsedge plant response rating (0 to 10 scale): 0
[4]; Preemergence, Rate 250 g/ha
  Nutsedge plant response rating: 0
[4]; Preemergence, Rate 500 g/ha
  Nutsedge plant response rating: 0
[4]; Rate 62 g/ha, Postemergence
  Nutsedge plant response rating: 0
[4]; [21]
  Plant response rating, Nutsedge: 0
[5]; [22]
  Plant response rating, Ducksalad (0 to 10 scale, 0 is no effect, 10 is complete control): 0
[5]; [23]
  Ducksalad plant response rating (0 to 10 scale, 0 is no effect, 10 is complete control): 0
[5]; [24]
  Ducksalad plant response rating: 0
[5]; [25]
  Ducksalad plant response rating: 0
[6]; [18]
  Plant response rating, Soybean: 3
[6]; [19]
  Plant response rating, Soybean: 4
[6]; [20]
  Plant response rating, Soybean: 0
[6]; Preemergence, Rate 125 g/ha
  Soybean plant response rating (0 to 10 scale): 0
[6]; Preemergence, Rate 250 g/ha
  Soybean plant response rating: 0
[6]; Preemergence, Rate 500 g/ha
  Soybean plant response rating: 2
[6]; Rate 62 g/ha, Postemergence
  Soybean plant response rating: 3
[6]; [21]
  Plant response rating, Soybean: 4
[7]; [18]
  Plant response rating, B. signalgrass: 0
[7]; [19]
  Plant response rating, B. signalgrass: 0
[7]; [20]
  Plant response rating, B. signalgrass: 0
[7]; Preemergence, Rate 125 g/ha
  B. signalgrass plant response rating (0 to 10 scale, 0 is no effect, 10 is complete control): 0
[7]; Preemergence, Rate 250 g/ha
  B. signalgrass plant response rating: 0
[7]; Preemergence, Rate 500 g/ha
  B. signalgrass plant response rating: 2
[7]; Rate 62 g/ha, Postemergence
  B. signalgrass plant response rating: 0
[7]; [21]
  Plant response rating, B. signalgrass: 0
[8]; [18]
  Plant response rating, Cocklebur: 1
[8]; [19]
  Plant response rating, Cocklebur: 2
[8]; [20]
  Plant response rating, Cocklebur: 0
[8]; Preemergence, Rate 125 g/ha
  Cocklebur plant response rating (0 to 10 scale): 0
[8]; Preemergence, Rate 250 g/ha
  Cocklebur plant response rating: 0
[8]; Preemergence, Rate 500 g/ha
  Cocklebur plant response rating: 0
[8]; Rate 62 g/ha, Postemergence
  Cocklebur plant response rating: 0
[8]; [21]
  Plant response rating, Cocklebur: 2
[9]; [22]
  Plant response rating, Barnyardgrass (0 to 10 scale, 0 is no effect, 10 is complete control): 0
[9]; [23]
  Barnyardgrass plant response rating (0 to 10 scale, 0 is no effect, 10 is complete control): 0
[9]; [24]
  Barnyardgrass plant response rating: 0
[9]; [25]
  Barnyardgrass plant response rating: 0
[10]; [18]
  Plant response rating, Velvetleaf: 0
[10]; [19]
  Plant response rating, Velvetleaf: 1
[10]; [20]
  Plant response rating, Velvetleaf: 0
[10]; Preemergence, Rate 125 g/ha
  Velvetleaf plant response rating (0 to 10 scale): 0
[10]; Preemergence, Rate 250 g/ha
  Velvetleaf plant response rating: 0
[10]; Preemergence, Rate 500 g/ha
  Velvetleaf plant response rating: 0
[10]; Rate 62 g/ha, Postemergence
  Velvetleaf plant response rating: 0
[10]; [21]
  Plant response rating, Velvetleaf: 2
[11]; [18]
  Plant response rating, Giant foxtail: 3
[11]; [19]
  Plant response rating, Giant foxtail: 3
[11]; [20]
  Plant response rating, Giant foxtail: 8
[11]; Preemergence, Rate 125 g/ha
  Giant foxtail plant response rating (0 to 10 scale): 8
[11]; Preemergence, Rate 250 g/ha
  Giant foxtail plant response rating: 10
[11]; Preemergence, Rate 500 g/ha
  Giant foxtail plant response rating: 10
[11]; Rate 62 g/ha, Postemergence
  Giant foxtail plant response rating: 0
[11]; [21]
  Plant response rating, Giant foxtail: 6
[12]; [18]
  Plant response rating, Blackgrass: 0
[12]; [19]
  Plant response rating, Blackgrass: 0
[12]; [20]
  Plant response rating, Blackgrass: 1
[12]; Preemergence, Rate 125 g/ha
  Blackgrass plant response rating (0 to 10 scale): 3
[12]; Preemergence, Rate 250 g/ha
  Blackgrass plant response rating: 5
[12]; Preemergence, Rate 500 g/ha
  Blackgrass plant response rating: 7
[12]; Rate 62 g/ha, Postemergence
  Blackgrass plant response rating: 0
[12]; [21]
  Plant response rating, Blackgrass: 0
[13]; [22]
  Plant response rating, S. Flatsedge (0 to 10 scale, 0 is no effect, 10 is complete control): 0
[13]; [23]
  S. Flatsedge plant response rating (0 to 10 scale, 0 is no effect, 10 is complete control): 0
[13]; [24]
  S. Flatsedge plant response rating: 0
[13]; [25]
  S. Flatsedge plant response rating: 0
[14]; [18]
  Plant response rating, Corn: 0
[14]; [19]
  Plant response rating, Corn: 0
[14]; [20]
  Plant response rating, Corn: 0
[14]; Preemergence, Rate 125 g/ha
  Corn plant response rating (0 to 10 scale): 0
[14]; Preemergence, Rate 250 g/ha
  Corn plant response rating: 3
[14]; Preemergence, Rate 500 g/ha
  Corn plant response rating: 3
[14]; Rate 62 g/ha, Postemergence
  Corn plant response rating: 0
[14]; [21]
  Plant response rating, Corn: 0
[15]; [18]
  Plant response rating, Crabgrass: 0
[15]; [19]
  Plant response rating, Crabgrass: 1
[15]; [20]
  Plant response rating, Crabgrass: 4
[15]; Preemergence, Rate 125 g/ha
  Crabgrass plant response rating (0 to 10 scale): 7
[15]; Preemergence, Rate 250 g/ha
  Crabgrass plant response rating: 10
[15]; Preemergence, Rate 500 g/ha
  Crabgrass plant response rating: 10
[15]; Rate 62 g/ha, Postemergence
  Crabgrass plant response rating: 0
[15]; [21]
  Plant response rating, Crabgrass: 2
[16]; [22]
  Plant response rating, Rice (0 to 10 scale, 0 is no effect, 10 is complete control): 0
[16]; [23]
  Rice plant response rating (0 to 10 scale, 0 is no effect, 10 is complete control): 0
[16]; [24]
  Rice plant response rating: 0
[16]; [25]
  Rice plant response rating: 0
[17]; [18]
  Plant response rating, Wheat: 0
[17]; [19]
  Plant response rating, Wheat: 0
[17]; [20]
  Plant response rating, Wheat: 0
[17]; Preemergence, Rate 125 g/ha
  Wheat plant response rating (0 to 10 scale): 0
[17]; Preemergence, Rate 250 g/ha
  Wheat plant response rating: 0
[17]; Preemergence, Rate 500 g/ha
  Wheat plant response rating: 0
[17]; Rate 62 g/ha, Postemergence
  Wheat plant response rating: 0
[17]; [21]
  Plant response rating, Wheat: 0
